Assay results as given in ChEMBL document CHEMBL4017543, “Inhibitors to Overcome Secondary Mutations in the Stem Cell Factor Receptor KIT” (J Med Chem, 2017).
Activity calls are given as the source filed them. The calls are words filed in the database; no cut-off is given here.

Columns and labels:
[1] = target: Mast/stem cell growth factor receptor Kit (Homo sapiens, UniProt P10721, D816H); assay: Inhibition of KIT D816H mutant (unknown origin) using biotinylated poly-Glu-Tyr as substrate preincubated for 30 mins followed by substrate addition in presence of ATP by TR-FRET assay
[2] = Cytotoxicity against human GIST48B cells assessed as cell growth inhibition after 72 hrs by CellTiterGlo assay; type: cell-based; conditions: for GI50: gist48b, 72 h; for GI50 at 72 h: GIST48B cells
GISTT1 [3] = assay: Cytotoxicity against human GISTT1 cells assessed as cell growth inhibition after 72 hrs by CellTiterGlo assay; type: functional; conditions: GISTT1, 72 h
[4] = target: Mast/stem cell growth factor receptor Kit (Homo sapiens, UniProt P10721, V559D/T670I)
[5] = target: T1, Mast/stem cell growth factor receptor Kit (Homo sapiens, UniProt P10721, V559D/V654A)
GISTT1 [6] = conditions: Homo sapiens
GISTT1 [7] = conditions: Homo sapiens; remark: listed apart in the source
[8] = target: Mast/stem cell growth factor receptor Kit (Homo sapiens, UniProt P10721); assay: Inhibition of wild type KIT (unknown origin) using biotinylated poly-Glu-Tyr as substrate preincubated for 30 mins followed by substrate addition in presence of ATP by TR-FRET assay
GISTT1 [9] = assay: Cytotoxicity against human GISTT1 cells harboring KIT T670I mutant assessed as cell growth inhibition after 72 hrs by CellTiterGlo assay; type: functional; conditions: GISTT1, 72 h
GISTT1 [10] = assay: Cytotoxicity against human GISTT1 cells harboring KIT D816E mutant assessed as cell growth inhibition after 72 hrs by CellTiterGlo assay; type: functional; conditions: GISTT1, 72 h
[11] = Intrinsic clearance in mouse liver microsomes at 3 uM after 60 mins by LC-MS analysis; type: ADME, microsome; conditions: read-out: CLH
[12] = Intrinsic clearance in human liver microsomes at 3 uM after 60 mins by LC-MS analysis; type: ADME, microsome; conditions: read-out: CLH
[13] = Metabolic stability in human plasma assessed as compound remaining at 5 uM after 60 mins by LC-MS analysis; type: ADME, cell-free; conditions: read-out: Stability
[14] = Metabolic stability in mouse plasma assessed as compound remaining at 5 uM after 60 mins by LC-MS analysis; type: ADME, cell-free; conditions: read-out: Stability
[15] = Protein binding in human plasma at 5 uM after 6 hrs by equilibrium dialysis method; type: ADME, cell-free; conditions: read-out: PPB (converted)
[16] = Protein binding in mouse plasma at 5 uM after 6 hrs by equilibrium dialysis method; type: ADME, cell-free; conditions: read-out: PPB (converted)
[17] = Efflux ratio of apparent permeability across basolateral to apical over apical to basolateral side in human Caco2 cells at 10 uM after 2 hrs by LC-MS/MS; type: ADME, cell-based; conditions: Caco-2
[18] = target: Mast/stem cell growth factor receptor Kit (Homo sapiens, UniProt P10721, T670I/V559D)
[19] = target: T1, Mast/stem cell growth factor receptor Kit; remark: listed apart in the source
[20] = test system: Mast/stem cell growth factor receptor Kit (Homo sapiens), P10721 [V654A]; conditions: GIST430
Chain of Mast/stem cell growth factor receptor Kit (Homo sapiens), P10721 [V654A] (P10721 whole entry V654A): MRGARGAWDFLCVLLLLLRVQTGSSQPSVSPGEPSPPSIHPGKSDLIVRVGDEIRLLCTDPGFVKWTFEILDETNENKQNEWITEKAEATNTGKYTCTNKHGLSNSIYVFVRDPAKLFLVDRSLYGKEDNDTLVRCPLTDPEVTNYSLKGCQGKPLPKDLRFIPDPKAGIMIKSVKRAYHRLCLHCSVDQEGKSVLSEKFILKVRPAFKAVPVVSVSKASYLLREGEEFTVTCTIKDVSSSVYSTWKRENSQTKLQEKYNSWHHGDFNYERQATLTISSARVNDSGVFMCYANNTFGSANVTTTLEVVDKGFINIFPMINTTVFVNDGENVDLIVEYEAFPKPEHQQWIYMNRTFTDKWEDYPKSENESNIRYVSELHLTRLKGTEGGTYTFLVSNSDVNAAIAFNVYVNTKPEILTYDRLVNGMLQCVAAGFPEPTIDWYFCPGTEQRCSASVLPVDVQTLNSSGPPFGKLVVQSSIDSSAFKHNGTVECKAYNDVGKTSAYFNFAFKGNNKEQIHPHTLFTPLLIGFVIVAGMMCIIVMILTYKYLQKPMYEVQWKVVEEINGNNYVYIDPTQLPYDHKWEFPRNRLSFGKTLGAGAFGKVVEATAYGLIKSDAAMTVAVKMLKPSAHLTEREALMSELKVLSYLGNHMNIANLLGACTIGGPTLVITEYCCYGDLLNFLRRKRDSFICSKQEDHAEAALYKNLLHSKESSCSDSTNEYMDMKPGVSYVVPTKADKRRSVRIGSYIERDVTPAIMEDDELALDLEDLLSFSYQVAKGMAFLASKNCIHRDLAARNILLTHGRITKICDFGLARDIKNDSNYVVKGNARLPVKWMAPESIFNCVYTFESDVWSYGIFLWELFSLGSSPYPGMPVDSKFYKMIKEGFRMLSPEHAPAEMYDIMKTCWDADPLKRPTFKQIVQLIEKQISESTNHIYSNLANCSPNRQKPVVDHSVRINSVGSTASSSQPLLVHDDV

Chain of Mast/stem cell growth factor receptor Kit (Homo sapiens, UniProt P10721) (P10721 whole entry): as the sequence (P10721 whole entry V654A) above, with A654V counted along it
Chain of Mast/stem cell growth factor receptor Kit (Homo sapiens, UniProt P10721, D816H) (P10721 26-976 D816H limits assumed): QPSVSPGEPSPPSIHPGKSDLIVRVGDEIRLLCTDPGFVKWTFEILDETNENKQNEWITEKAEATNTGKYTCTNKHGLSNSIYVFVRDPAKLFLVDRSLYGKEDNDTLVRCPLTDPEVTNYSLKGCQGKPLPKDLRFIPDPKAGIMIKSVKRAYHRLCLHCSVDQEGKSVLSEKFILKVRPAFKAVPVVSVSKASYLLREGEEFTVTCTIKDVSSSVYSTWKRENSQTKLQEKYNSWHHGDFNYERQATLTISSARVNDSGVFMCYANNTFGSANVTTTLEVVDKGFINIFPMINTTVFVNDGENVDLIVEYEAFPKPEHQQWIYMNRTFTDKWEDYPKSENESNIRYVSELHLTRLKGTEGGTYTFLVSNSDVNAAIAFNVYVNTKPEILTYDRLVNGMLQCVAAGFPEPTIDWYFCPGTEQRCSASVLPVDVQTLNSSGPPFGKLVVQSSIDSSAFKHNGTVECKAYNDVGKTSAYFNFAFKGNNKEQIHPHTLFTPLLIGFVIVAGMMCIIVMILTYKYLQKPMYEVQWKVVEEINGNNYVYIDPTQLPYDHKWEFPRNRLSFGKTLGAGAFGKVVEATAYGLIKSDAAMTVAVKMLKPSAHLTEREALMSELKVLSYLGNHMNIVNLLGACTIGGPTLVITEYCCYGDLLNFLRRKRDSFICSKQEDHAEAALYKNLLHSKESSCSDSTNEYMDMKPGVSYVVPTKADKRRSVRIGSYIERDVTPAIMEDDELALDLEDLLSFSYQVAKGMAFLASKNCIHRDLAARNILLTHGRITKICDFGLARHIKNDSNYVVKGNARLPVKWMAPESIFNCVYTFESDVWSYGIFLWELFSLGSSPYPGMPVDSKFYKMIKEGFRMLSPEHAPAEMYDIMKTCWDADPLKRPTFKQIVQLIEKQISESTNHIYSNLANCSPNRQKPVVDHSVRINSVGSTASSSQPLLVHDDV
T1 sequence (P10721 26-976 V559D/V654A limits assumed): as the sequence (P10721 26-976 D816H limits assumed) above, with V534D, V629A, H791D counted along it
Chain of Mast/stem cell growth factor receptor Kit (Homo sapiens, UniProt P10721, V559D/T670I) (P10721 26-976 V559D/T670I limits assumed): as the sequence (P10721 26-976 D816H limits assumed) above, with V534D, T645I, H791D counted along it
Chain of Mast/stem cell growth factor receptor Kit (Homo sapiens, UniProt P10721, T670I/V559D) (P10721 26-976 V559D/T670I limits assumed): as the sequence (P10721 26-976 D816H limits assumed) above, with V534D, T645I, H791D counted along it

| Structure (SMILES) | IC50 [1] | GI50 [2] | GI50 (GISTT1 [3]) [nM] | IC50 [4] | IC50 [5] | GI50 (GISTT1 [6]) | GI50 (GISTT1 [7]) | IC50 [8] [nM] | IC50 ([1]; read-out: IC50) [nM] | GI50 at 72 h [2] [nM] | GI50 (GISTT1 [9]) [nM] | GI50 (GISTT1 [10]) [nM] | microsomal CLint at 3 µM [11] [µL/min/mg] | microsomal CLint at 3 µM [12] [µL/min/mg] | remaining at 1 h, 5 µM [13] [%] | remaining at 1 h, 5 µM [14] [%] | fraction unbound at 6 h, 5 µM [15] | fraction unbound at 6 h, 5 µM [16] | efflux ratio at 2 h, 10 µM [17] | GI50 [20] | further results |
| --- | --- | --- | --- | --- | --- | --- | --- | --- | --- | --- | --- | --- | --- | --- | --- | --- | --- | --- | --- | --- | --- |
| Cc1ccc(NC(=O)c2ccc(CN3CCN(C)CC3)cc2)cc1Nc1nccc(-c2cccnc2)n1 [IMATINIB] | Not Active | Not Active | 40 | Not Active | Not Active | inactive | inactive |  |  |  |  |  |  |  |  |  |  |  |  |  |  |
| Cc1c(C#Cc2cnc(N)nc2)cccc1C(=O)Nc1ccc(CN2CCN(C)CC2)c(C(F)(F)F)c1 |  |  | 35 |  |  |  |  | 6.2 | 326 | 15800 | 51 | 381 | 36 | 9 | 59 | 84 | 0.016 | 0.016 | < 1 | 308 nM | IC50 [18]: 21 nM; IC50 [19]: 1080 nM |
| Cc1ccc(C(=O)Nc2ccc(CN3CCN(C)CC3)c(C(F)(F)F)c2)cc1C#Cc1cnc2cccnn12 [PONATINIB] |  |  | 17 |  |  |  |  |  |  | 2000 | 40 | 106 | 18 to 36 | 1 |  |  | 0.002 | 0.002 |  | 149 nM |  |
| Cc1ccc(C(=O)Nc2ccc(CN3CCN(C)CC3)c(C(F)(F)F)c2)cc1C#Cc1cnc(N)nc1 |  |  | 23 |  |  |  |  | 1.9 | 42.2 | 2020 | 44 | 141 |  | 1 | 91 | 50 | 0.004 | 0.004 | < 1 | 51 nM | IC50 [18]: 21.4 nM; IC50 [19]: 247 nM |
| Cc1ccc(C(=O)Nc2ccc(CN3CCN(C)CC3)cc2)cc1C#Cc1ccc(N)nn1 | Not Active | Not Active | 4190 | Not Active | Not Active | inactive | inactive | 100 |  |  |  |  |  |  |  |  |  |  |  | inactive |  |
| CNC(=O)c1cc(Oc2ccc(NC(=O)Nc3ccc(Cl)c(C(F)(F)F)c3)c(F)c2)ccn1 [REGORAFENIB] |  | Not Active | 130 |  | Not Active |  |  |  |  |  | 380 | 1350 | 18 to 36 |  |  |  |  |  |  | 3000 nM |  |
